Measured values as given in ChEMBL document CHEMBL1201862, “PubChem BioAssay data set” (2004).
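Cells were grown in 96-well plates and exposed to each compound for 48 hours at five concentrations; endpoints were interpolated linearly between bracketing concentrations, or set to the highest concentration if not reached. GI50 is the concentration that inhibits growth by half.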 The source made the active and inactive calls. No stated cut-off is given here; in the data, active = GI50 up to about 1.1 µM and inactive = higher.

Key:
Assay in all cases: NCI anticancer screen, dose series, 48 h
UACC-62 = system: UACC-62
DU-145 = system: DU-145
HCT-15 = system: HCT-15
A498 = system: A498
CCRF-CEM = system: CCRF-CEM
IGROV-1 = system: IGROV-1
T47D = system: T47D
SF-539 = system: SF-539
NCI-H226 = system: NCI-H226
SF-268 = system: SF-268
UACC-257 = system: UACC-257
SNB-75 = system: SNB-75
NCI-H23 = system: NCI-H23
KM12 = system: KM12
NCI/ADR-RES = system: NCI/ADR-RES
A549 = system: A549
MDA-MB-231 = system: MDA-MB-231
RXF 393 = system: RXF 393
Malme-3M = system: Malme-3M
LOX IMVI = system: LOX IMVI

Row | SMILES | GI50 (UACC-62) | GI50 (DU-145) | GI50 (HCT-15) | GI50 (A498) | GI50 (CCRF-CEM) | GI50 (IGROV-1) | GI50 (T47D) | GI50 (SF-539) | GI50 (NCI-H226) | GI50 (SF-268) | GI50 (UACC-257) | GI50 (SNB-75) | GI50 (NCI-H23) | GI50 (KM12) | GI50 (NCI/ADR-RES) | GI50 (A549) | GI50 (MDA-MB-231) | GI50 (RXF 393) | GI50 (Malme-3M) | GI50 (LOX IMVI)
1 | CN1CCC(OC(=O)Oc2ccccc2)(c2ccccc2)CC1 | 21.5 µM (inactive) | 47.1 µM (inactive) | 16.7 µM | 23.8 µM (inactive) | 21.8 µM (inactive) | 21.1 µM (inactive) | 26.6 µM (inactive) | 13.6 µM (inactive) | 22.7 µM (inactive) | 37.1 µM (inactive) | 19.7 µM (inactive) | 24.4 µM (inactive) | 14.4 µM (inactive) | 17.9 µM (inactive) | 16.6 µM (inactive) | 38.2 µM (inactive) | 12.9 µM (inactive) | 37.3 µM (inactive) | 17.7 µM (inactive) | 17.8 µM (inactive)
2 | O=C(C1OC1c1ccc(Br)cc1O)C12CC3CC(CC(C3)C1)C2 (stereo not given) | 15.5 µM (inactive) | 42 µM (inactive) | 19.4 µM | 97.3 µM (inactive) | 23.5 µM (inactive) | 32 µM (inactive) | 40.8 µM (inactive) | 95.1 µM (inactive) | 28.5 µM (inactive) | 31.7 µM (inactive) | 29 µM (inactive) | 14.5 µM (inactive) | 19.2 µM (inactive) | 19.5 µM (inactive) | 30 µM (inactive) | 37.8 µM (inactive) | 18.1 µM (inactive) | 21.7 µM (inactive) | 20 µM (inactive) | 14.6 µM (inactive)
3 | CCOC(=O)/C=C(\C(=O)OCC)n1ccc(=O)n(Cc2cnnn2COCCOC(C)=O)c1=O | 16.1 µM (inactive) | 18.8 µM (inactive) | 7.67 µM | 23 µM (inactive) | 1.61 µM (inactive) | 16.8 µM (inactive) | 6.11 µM (inactive) | 2.36 µM (inactive) | 16.8 µM (inactive) | 16.5 µM (inactive) | 16.2 µM (inactive) | 16.4 µM (inactive) | 17.3 µM (inactive) | 16.1 µM (inactive) | 22.9 µM (inactive) | 21.6 µM (inactive) | 17.6 µM (inactive) | 1.85 µM (inactive) | 2.04 µM (inactive) | 12.2 µM (inactive)
4 | CSCCC(NC(=O)OC(C)(C)C)C(=O)NCCNc1ccc(NCCNC(=O)C(CCSC)NC(=O)OC(C)(C)C)c2c1C(=O)c1ccccc1C2=O (stereo not given) | 3.8 µM (inactive) | 4.79 µM (inactive) | > 67.6 µM | 4.62 µM (inactive) | 3.56 µM (inactive) | 3.14 µM (inactive) | 5.21 µM (inactive) | 2.71 µM (inactive) | 6.76 µM (inactive) | 3.37 µM (inactive) | 5.65 µM (inactive) | 2.37 µM (inactive) | 4.51 µM (inactive) | 5.77 µM (inactive) | > 74.1 µM (inactive) | 2.84 µM (inactive) | 2.83 µM (inactive) | 16.3 µM (inactive) | 2.33 µM (inactive) | 7.74 µM (inactive)
